Test results: BindingDB's records for patent US20230285340 (Theravance Biopharma R&D Ip, 2023)

biological target: Neprilysin/Angiotensin-converting enzyme (Homo sapiens, UniProt P08473+P12821); assay: Enzyme Inhibition Assays (Assay 1)
Method: The assays were performed in 384-well white opaque plates at 37° C. using the fluorogenic peptide substrates at a concentration of 10 μM in Assay Buffer (NEP: 50 mM HEPES, pH 7.5, 100 mM NaCl, 0.01% polyethylene glycol sorbitan monolaurate (Tween-20), 10 μM ZnSO4; ACE: 50 mM HEPES, pH 7.5, 100 mM NaCl, 0.01% Tween-20, 1 μM ZnSO4). […] Test compounds were added to the enzymes and incubated for 30 minute at 37° C. prior to initiating the reaction by the addition of substrate. Reactions were terminated after 20 minutes of incubation at 37° C. by the addition of glacial acetic acid to a final concentration of 3.6% (v/v). […] Inhibition constants were obtained by nonlinear regression of the data using the equation (GraphPad Software, Inc., San Diego, Calif.)

| SMILES | Ki [nM] |
| --- | --- |
| CC(C)OC(=O)C(=O)N[C@H](Cc1ccc(-c2cccc(Cl)c2)cc1)C[C@@H](O)C(=O)O [US20230285340, Example 2G] | 1.26 to 10 |
| CC(C)COC(=O)[C@H](O)C[C@@H](Cc1ccc(-c2cccc(Cl)c2)cc1)NC(=O)C(=O)O [US20230285340, Example 2I] | 1.26 to 10 |
| CC(C)OC(=O)[C@H](O)C[C@@H](Cc1ccc(-c2cccc(Cl)c2)cc1)NC(=O)C(=O)O [US20230285340, Example 2J] | 12.6 to 100 |
| O=C(O)C(=O)N[C@H](Cc1ccc(-c2ccccc2)cc1Cl)C[C@@H](O)C(=O)O [US20230285340, Example 4] | 1.26 to 10 |
| C[C@@](CO)(C[C@@H](Cc1ccc(-c2ccccc2)cc1)NC(=O)C(=O)O)C(=O)O [US20230285340, Example 9A] | 1.26 to 10 |
| C[C@@](CO)(C[C@@H](Cc1ccc(-c2cccc(F)c2)cc1)NC(=O)C(=O)O)C(=O)O [US20230285340, Example 10] | 1.26 to 10 |
| CC(O)(CN(Cc1ccc(-c2ccccc2)cc1)NC(=O)C(=O)O)C(=O)O (stereo unspecified) [US20230285340, Example 12] | 12.6 to 100 |
| O=C(O)C(=O)NN(Cc1ccc(-c2cccc(Cl)c2)cc1)C[C@@H](O)C(=O)O [US20230285340, Example 13] | 1.26 to 10 |
| CCOC(=O)C(=O)NN(Cc1ccc(-c2cc(Cl)ccc2F)cc1)C[C@@H](O)C(=O)O [US20230285340, Example 14F] | 1.26 to 10 |
| CC(C)(c1ccc(-c2ccccc2)cc1)[C@H](C[C@@H](O)C(=O)O)NC(=O)C(=O)O [US20230285340, Example 15] | 12.6 to 100 |
| CC(C)(c1ccc(-c2ccccc2)cc1)[C@H](C[C@@H](CO)C(=O)O)NC(=O)C(=O)O [US20230285340, Example 16] | 1.26 to 10 |
